# Peptide text beside a SMILES is read from it.
# Molecular target: T1, PscD (PscD-SD, Cache sensor domain of chemoreceptor PscD) (Pseudomonas syringae, UniProt A0ABY1U976)
# T1 construct: gene CFBP3846_03581; sensor domain, Gln31-Trp188, N-terminal His6 tag
# Test: ITC; thermal shift
# Type: binding
# Settings: not given
row,Structure (SMILES),Kd [µM]
1,O=C(O)CO [glycolate],23

# Same assay, conditions: read-out: Kd
row,Structure (SMILES),Kd [µM]
1,CC(=O)O [acetate],31
2,CC(=O)C(=O)O [pyruvate],356

# Molecular target: T1, PscD (PscD-SD, Cache sensor domain of chemoreceptor PscD)
# Test: ITC; X-ray crystal structure (propionate soak); thermal shift
# Type: binding
# Settings: not given
row,Structure (SMILES),Kd [µM]
1,CCC(=O)O [propionate],101

# Molecular target: T2, PscD (PscD-SD, Cache sensor domain of chemoreceptor PscD) (Pseudomonas syringae, UniProt A0ABY1U976)
# T2 construct: gene CFBP3846_03581; sensor domain, Gln31-Trp188, N-terminal His6 tag
# T2 sequence (A0ABY1U976 31-188): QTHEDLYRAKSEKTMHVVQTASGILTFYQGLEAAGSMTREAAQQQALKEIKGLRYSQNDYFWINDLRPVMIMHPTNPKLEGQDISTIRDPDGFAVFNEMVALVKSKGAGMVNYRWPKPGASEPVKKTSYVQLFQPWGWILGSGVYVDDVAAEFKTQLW
# Test: not given
# Settings: Biolog plate compound, exact concentration unknown; binder
# From the text: (§1) We used high-throughput fluorescence thermal shift (FTS) assays (as described previously[16]) to screen for potential ligands of PscD-SD. FTS assays are based on the principle that ligands stabilise proteins upon binding, causing an increase in the melting temperature of the protein[22][23]. Binding can therefore be rapidly screened by measuring the difference in the temperature midpoint of unfolding (ΔTm) of a protein in the presence and absence of potential ligands. In our FTS assays, the Tm was measured by monitoring an increase in fluorescence of a dye with affinity for hydrophobic parts of the protein (i.e. SYPRO Orange), which are exposed as the protein unfolds. We screened the recombinant PscD-SD protein in FTS assays against the compounds in Biolog Phenotype Microarray (PM) plates 1 and 2 (Supplementary Tables 1 and 2). Each plate contains 95 different compounds (e.g., organic acids, sugars) and a water (no ligand) control. For use in FTS assays, the compounds were resuspended directly in water, thus generating a library of biologically relevant potential ligands. […] Fluorescent thermal shift (FTS) assays were conducted as reported previously. PscD-SD was screened for potential ligands against Biolog Phenotype Microarray (PM) plates 1 and 2 (Biolog, Hayward, CA, USA). For initial qualitative, high-throughput screening, ligands were prepared by dissolving Biolog PM compounds in 50 μL of water (each) to obtain a final concentration of approximately 10–20 mM (the exact concentrations vary from well-to-well). Screens were set up in Lightcycler 480 multiwell plates (Roche Diagnostics, Auckland, NZ) with 20 μM protein, a 5x concentration of SYPRO orange (Life Technologies, Carlsbad, CA, USA) and 5 μL of the test compound (i.e. resuspended Biolog ligands) added to each well. The plate was covered with Lightcycler 480 sealing film (Roche Diagnostics) and fluorescence signal was monitored as the temperature was increased from 20 °C to 80 °C at a rate of 1.2 °C.min^−1 in a Lightcycler 480 (Roche Diagnostics). Initial hits were further tested using known concentrations (0, 1, 2, 5 and 10 mM) of each potential ligand to confirm binding. The ligands were prepared as 10x stocks, 2 μL were added to each well, and the experiments were conducted as described above. The first derivative values (−dF/dt) from the raw fluorescence data were used to determine the melting temperature (Tm). Three biological replicates (from independently cultured and purified batches of protein) were performed for each plate screened.
row,Structure (SMILES),Δ Tm [°C]
1,OC[C@H]1O[C@@H](O[C@@H]2[C@@H](CO)OC(O)(CO)[C@H]2O)[C@H](O)[C@@H](O)[C@H]1O (mixture of isomers) [Lactulose],0.20 ± 0.03
2,"CC(O)CO (centres unmarked) [1,2-Propanediol]",0.12 ± 0.05
3,NCCO [2-Aminoethanol],0.15 ± 0.05
4,Nc1ncnc2c1ncn2[C@H]1C[C@H](O)[C@@H](CO)O1 [2-Deoxy-Adenosine],0.17 ± 0.05
5,CC(=O)CC(=O)O [Acetoacetic Acid],0.63 ± 0.05
6,Nc1ncnc2c1ncn2[C@@H]1O[C@H](CO)[C@@H](O)[C@H]1O [Adenosine],0.15 ± 0.05
7,OC[C@@H](O)[C@@H](O)[C@@H](O)CO [Adonitol],0.12 ± 0.03
8,O=C(O)CC(Br)C(=O)O (centres unmarked) [Bromo Succinic Acid],0.05 ± 0.10
9,C[C@@H](N)C(=O)O [D-Alanine],0.12 ± 0.03
10,O=C(CO)[C@@H](O)[C@H](O)[C@H](O)CO [D-Fructose],0.17 ± 0.05
11,O=C[C@H](O)[C@@H](O)[C@@H](O)[C@H](O)CO [D-Galactose],0.17 ± 0.02
12,O=C(O)[C@H](O)[C@@H](O)[C@H](O)[C@H](O)CO [D-Gluconic Acid],0.17 ± 0.02
13,N[C@@H](C(=O)O)[C@@H](O)[C@H](O)[C@H](O)CO [D-Glucosaminic Acid],0.10 ± 0.05
14,O=P(O)(O)O[C@H]1O[C@H](CO)[C@@H](O)[C@H](O)[C@H]1O [D-Glucose-1-Phosphate],0.10 ± 0.05
15,O=C(O)C[C@@H](O)C(=O)O [D-Malic Acid],0.17 ± 0.05
16,OC[C@@H](O)[C@@H](O)[C@H](O)[C@H](O)CO [D-Mannitol],0.17 ±0.05
17,OC[C@H]1OC(O)[C@@H](O)[C@@H](O)[C@@H]1O (stereo partly drawn) [D-Mannose],0.17 ± 0.05
18,O[C@@H]1[C@H](O)[C@H](O)CO[C@H]1O [D-Ribose],0.12 ±0.05
19,N[C@H](CO)C(=O)O [D-Serine],0.00 ± 0.00
20,OC[C@@H](O)[C@@H](O)[C@H](O)[C@@H](O)CO [D-Sorbitol],0.05 ± 0.07
21,O=CO [Formic Acid],0.20 ±0.03
22,NC(=O)[C@H]1O[C@@H](O)[C@H](O)[C@@H](O)[C@@H]1O [Glucuronamide],0.17 ± 0.06

row,Structure (SMILES),Δ Tm [°C]
1,OCC(O)CO [Glycerol],0.10 ± 0.05
2,NCC(=O)N[C@@H](CC(=O)O)C(=O)O [Glycyl-L-Aspartic Acid] (H-Gly-Asp-OH),0.00 ± 0.00
3,NCC(=O)N[C@@H](CCC(=O)O)C(=O)O [Glycyl-L-Glutamic Acid] (H-Gly-Glu-OH),0.00 ± 0.00
4,NCC(=O)N1CCC[C@H]1C(=O)O [Glycyl-L-Proline] (H-Gly-Pro-OH),0.00 ± 0.00
5,O=c1[nH]cnc2c1ncn2[C@@H]1O[C@H](CO)[C@@H](O)[C@H]1O [Inosine],0.15 ± 0.05
6,C[C@H](N)C(=O)O [L-Alanine],0.10 ± 0.03
7,C[C@H](N)C(=O)NCC(=O)O [L-Alanyl-Glycine] (H-Ala-Gly-OH),0.07 ± 0.08
8,O[C@@H]1[C@@H](O)[C@@H](O)CO[C@H]1O [L-Arabinose],0.05 ± 0.07
9,NC(=O)C[C@H](N)C(=O)O [L-Asparagine],0.00 ± 0.00
10,N[C@@H](CC(=O)O)C(=O)O [L-Aspartic Acid],0.17 ± 0.05
11,C[C@H](O)[C@@H](O)[C@@H](O)[C@H](O)C=O [L-Fucose],0.12 ± 0.05
12,NC(=O)CC[C@H](N)C(=O)O [L-Glutamine],0.00 ± 0.00
13,C[C@H](O)C(=O)O [L-Lactic Acid],0.12 ±0.03
14,O=C[C@H](O)[C@H](O)[C@@H](O)CO [L-Lyxose],0.28 ± 0.05
15,O=C(O)[C@@H]1CCCN1 [L-Proline],0.07 ± 0.04
16,N[C@@H](CO)C(=O)O [L-Serine],0.10 ± 0.05
17,C[C@@H](O)[C@H](N)C(=O)O [L-Threonine],0.12 ± 0.05
18,N[C@@H](CCC(=O)O)C(=O)O [L-glutamic acid],0.15 ±0.05
19,OC[C@H]1O[C@H](O[C@H]2[C@H](O)[C@@H](O)[C@H](O)O[C@@H]2CO)[C@H](O)[C@@H](O)[C@@H]1O [Maltose],0.20 ± 0.03
20,COC(=O)C(C)=O [Methyl Pyruvate],0.48 ± 0.13
21,COC(=O)CCC(=O)O [Mono Methyl Succinate],0.12 ± 0.03
22,O=C(O)[C@@H](O)[C@H](O)[C@H](O)[C@@H](O)C(=O)O [Mucic Acid],0.07 ± 0.04

row,Structure (SMILES),Δ Tm [°C]
1,CC(=O)N[C@@H]1[C@@H](O)[C@H](O)[C@@H](CO)O[C@@H]1O [N-Acetyl-D-Glucosamine],0.10 ± 0.05
2,CC(=O)N[C@H]1[C@@H](O)[C@H](O)[C@@H](CO)O[C@H]1O [N-Acetyl-β-D-Mannosamine],0.07 ± 0.04
3,NCCc1ccccc1 [Phenylethyl-amine],0.17 ± 0.05
4,O=C(O)CCC(=O)O [Succinic Acid],0.10 ± 0.03
5,OC[C@H]1O[C@@](CO)(O[C@H]2O[C@H](CO)[C@@H](O)[C@H](O)[C@H]2O)[C@@H](O)[C@@H]1O [Sucrose],0.17 ± 0.05
6,Cc1cn([C@H]2C[C@H](O)[C@@H](CO)O2)c(=O)[nH]c1=O [Thymidine],0.15 ± 0.05
7,O=C(O)CC(CC(=O)O)C(=O)O [Tricarballylic Acid],-0.03 ± 0.05
8,NCCc1ccc(O)cc1 [Tyramine],0.12 ± 0.03
9,O=c1ccn([C@@H]2O[C@H](CO)[C@@H](O)[C@H]2O)c(=O)[nH]1 [Uridine],0.15 ± 0.05
10,O=C(O)CO [glycolate],1.13 ± 0.00
11,O=C(O)Cc1cccc(O)c1 [m-Hydroxy Phenyl Acetic Acid],0.10 ± 0.05
12,O=C(O)Cc1ccc(O)cc1 [p-Hydroxy Phenyl Acetic Acid],0.15 ± 0.04
13,CCC(=O)O [propionate],2.66 ± 0.11
14,CC(=O)C(=O)O [pyruvate],1.01 ± 0.03
15,OC[C@H]1O[C@H](O)[C@H](O)[C@@H](O)[C@@H]1O [α-D-Glucose],0.12 ± 0.03
16,OC[C@H]1O[C@@H](O[C@H]2[C@H](O)[C@@H](O)[C@@H](O)O[C@@H]2CO)[C@H](O)[C@@H](O)[C@H]1O [α-D-Lactose],0.12 ± 0.03
17,CCC(O)C(=O)O (stereo not drawn) [α-Hydroxy Butyric Acid],0.17 ± 0.05
18,CCC(=O)C(=O)O [α-Keto-Butyric Acid],0.17 ± 0.05
19,O=C(O)CCC(=O)C(=O)O [α-Keto-Glutaric Acid],0.17 ± 0.02
20,CO[C@@H]1O[C@H](CO)[C@@H](O)[C@H](O)[C@H]1O [β-Methyl-D-Glucoside],0.07 ± 0.04

# Molecular target: T2, PscD (PscD-SD, Cache sensor domain of chemoreceptor PscD)
# Test: not given
# Set-up: fluorescence thermal shift (SYPRO Orange) screen of Biolog PM1/PM2 compounds, delta Tm
# Settings: Biolog plate compound, exact concentration unknown; binder
# Remark: another data set of the same source
# From the text: as §1
row,Structure (SMILES),Δ Tm [°C]
1,OC[C@H]1O[C@@H]2O[C@H]3[C@H](O)[C@@H](O)[C@@H](O[C@H]4[C@H](O)[C@@H](O)[C@@H](O[C@H]5[C@H](O)[C@@H](O)[C@@H](O[C@H]6[C@H](O)[C@@H](O)[C@@H](O[C@H]7[C@H](O)[C@@H](O)[C@@H](O[C@H]8[C@H](O)[C@@H](O)[C@@H](O[C@H]9[C@H](O)[C@@H](O)[C@@H](O[C@H]1[C@H](O)[C@H]2O)O[C@@H]9CO)O[C@@H]8CO)O[C@@H]7CO)O[C@@H]6CO)O[C@@H]5CO)O[C@@H]4CO)O[C@@H]3CO [γ-Cyclodextrin],0.28 ± 0.07
2,O=C(O)CCCO [γ-Hydroxy Butyric Acid],0.08 ± 0.00
3,NCCCC(=O)O [γ-amino butyric acid],0.05 ± 0.03
